This is an account of results in ChEMBL document CHEMBL1146350, “Synthesis of some new bioactive 3-amino-2-mercapto-5,6,7,8-tetrahydro[1]benzothieno[2,3-d]pyrimidin-4(3H)-one derivatives” (2007).

By inhibition in vivo is commonly meant the share of the control response that was lost under treatment. What is called MIC is the smallest concentration in the dilution series that meets the test's criterion for growth inhibition.

The subject of assay [1] is Rattus norvegicus. In words: Antiinflammatory activity in Wister Albino rat assessed as inhibition of paw edema at 50 mg/kg, po after 3hrs. It is filed as functional.
A further assay has as its system Escherichia coli. As to the kind of experiment: Antibacterial activity against Escherichia coli ATCC 25922 by disc diffusion method. The format is functional. The note with it: for MIC: Escherichia coli, ATCC 25922.
The test system of the next assay is Pseudomonas aeruginosa. As to the kind of experiment: Antibacterial activity against Pseudomonas aeruginosa ATCC 27853 by disc diffusion method. The format is functional. The settings on record: for MIC: Pseudomonas aeruginosa, ATCC 27853. Background: In agar diffusion tests the substance spreads into inoculated agar from a disc or well.
The next assay relates to Staphylococcus aureus. In words: Antibacterial activity against Staphylococcus aureus ATCC 25923 by disc diffusion method. The settings on record: for MIC: Staphylococcus aureus, ATCC 25923, read-out: MIC. It is filed as functional.
For a further assay, the system named is Klebsiella pneumoniae. In words: Antibacterial activity against Klebsiella pneumoniae by disc diffusion method. The note with it: for MIC: Klebsiella pneumoniae. The format is functional.
The test system of the next assay is Talaromyces marneffei. In words: Antifungal activity against Penicillium marneffei by serial plate dilution method. It is filed as functional. The note with it: for MIC: Talaromyces marneffei.
In another assay the test system is Aspergillus flavus. In words: Antifungal activity against Aspergillus flavus NCIM 524 by serial plate dilution method. The format is functional. The note with it: for MIC: Aspergillus flavus, NCIM 524.
The next assay relates to Aspergillus fumigatus. In words: Antifungal activity against Aspergillus fumigatus NCIM 902 by serial plate dilution method. It is filed as functional. The settings on record: for MIC: Aspergillus fumigatus, NCIM 902.
Another assay relates to Trichophyton benhamiae. In words: Antifungal activity against Trichophyton mentagrophytes by serial plate dilution method. The format is functional, Arthroderma benhamiae. The settings on record: for MIC: Trichophyton benhamiae.
Assay [2] has as its system Mus musculus. In words: Anticonvulsant activity in Swiss Albino mouse assessed as duration of seizure at 2 mg/kg, po by PTZ induced seizure test. It is filed as functional.
The subject of assay [3] is Mus musculus. In words: Anticonvulsant activity in Swiss Albino mouse assessed as duration of seizure at 50 mg/kg, po by PTZ induced seizure test. The format is functional.
Assay [4] has as its system Mus musculus. In words: Anticonvulsant activity in Swiss Albino mouse assessed as mortality at 50 mg/kg, po by PTZ induced seizure test. It is filed as functional, organism-based. On the set-up: dose 50 mg/kg.
The test system of assay [5] is Mus musculus. In words: Antianxiety study in Swiss Albino mouse assessed as ratio of number of entreis in open arm to total entries at 50 mg/kg by elevated plus maze test. The format is functional.
Assay [6] deals with Mus musculus. As to the kind of experiment: Antianxiety study in Swiss Albino mouse assessed as time spent in open arm at 50 mg/kg by elevated plus maze model. The format is functional.
Assay [7] relates to Mus musculus. As to the kind of experiment: Effect on coordination in Swiss Albino mouse at 50 mg/kg by rotarod accelorod test. It is filed as functional. (In the rotarod test animals must keep their balance on a rotating rod.)
Assay [8] is filed under the species Mus musculus. As to the kind of experiment: Effect on learning and memory in Swiss Albino mouse assessed as latent period on second day. It is filed as functional.
The species named for assay [9] is Mus musculus. In words: Effect on learning and memory in Swiss Albino mouse assessed as latent period on first day. The format is functional.
The test system of assay [10] is Mus musculus. In words: Antianxiety study in Swiss Albino mouse assessed as time spent in close arm at 50 mg/kg by elevated plus maze model. It is filed as functional.
The subject of assay [11] is Mus musculus. In words: Anticonvulsant activity in Swiss Albino mouse assessed as latency period at 50 mg/kg, po by PTZ induced seizure test. On the set-up: dose 50 mg/kg. The format is functional, organism-based.
The test system of assay [12] is Rattus norvegicus. In words: Antiinflammatory activity in Wister Albino rat assessed as inhibition of paw edema at 1.5 mg/kg, po after 3hrs. The format is functional.

The structures appear in SMILES notation. Converted amounts (≈) assume the structure as drawn. The source made the active and inactive calls.

For `Cc1nn2c(=O)c3c4c(sc3nc2s1)CCCC4`, in the assay on Rattus norvegicus [1], the inhibition in vivo at 50 mg/kg was determined as 34.6%. Moreover, the “inhibition zone (IZ)” value in the assay on Escherichia coli is reported as 18 mm; in the assay with Pseudomonas aeruginosa, 22 mm; in the assay with Staphylococcus aureus it was 20 mm; with Klebsiella pneumoniae, 20 mm; with Talaromyces marneffei, 16 mm; in the assay with Aspergillus flavus, 12 mm. In addition, the figures for the “inhibition zone (IZ)” value with Aspergillus fumigatus and with Trichophyton benhamiae were 16 mm and 7 mm, respectively. Further, the MIC is 10 µg/mL (≈ 36.1 µM) in the assay with Escherichia coli; 6.25 µg/mL (≈ 22.5 µM) with Pseudomonas aeruginosa; 10 µg/mL (≈ 36.1 µM) in the assay on Staphylococcus aureus; 10 µg/mL (≈ 36.1 µM) in the assay on Klebsiella pneumoniae; 12.5 µg/mL (≈ 45.1 µM) against Talaromyces marneffei; 80 µg/mL (≈ 288 µM) against Aspergillus flavus. Also, the MIC was 12.5 µg/mL (≈ 45.1 µM) against Aspergillus fumigatus and more than 100 µg/mL in the assay with Trichophyton benhamiae. For the same compound, the Activity came to 3600 s in the assay on Mus musculus [2]; 0 s in the assay on Mus musculus [3]; 16.67% with Mus musculus [5]; 4 s with Mus musculus [6]; 284 s in the assay with Mus musculus [7]; 25 s in the assay listed under Mus musculus [8]. For the same compound, the Activity is 39 s in the assay filed under Mus musculus [9] and 285 s with Mus musculus [10]. Moreover, the outcome with Mus musculus [4] was Active.

For the compound `CCCc1nn2c(=O)c3c4c(sc3nc2s1)CCCC4`, the inhibition in vivo at 50 mg/kg with Rattus norvegicus [1] amounted to 30.8%. Moreover, the “inhibition zone (IZ)” value in the assay on Escherichia coli came out at 18 mm; with Pseudomonas aeruginosa, 22 mm; with Staphylococcus aureus, 20 mm; with Klebsiella pneumoniae it was 26 mm; with Talaromyces marneffei, 19 mm; in the assay on Aspergillus flavus, 28 mm. The “inhibition zone (IZ)” value came out at 26 mm in the assay on Aspergillus fumigatus and 6 mm with Trichophyton benhamiae. Besides, the MIC in the assay on Escherichia coli is 10 µg/mL (≈ 32.7 µM); against Pseudomonas aeruginosa it was 10 µg/mL (≈ 32.7 µM); in the assay on Staphylococcus aureus, 10 µg/mL (≈ 32.7 µM); against Klebsiella pneumoniae, 6.25 µg/mL (≈ 20.5 µM); in the assay on Talaromyces marneffei, 12.5 µg/mL (≈ 40.9 µM); with Aspergillus flavus it was less than 6.25 µg/mL. The MIC against Aspergillus fumigatus was less than 6.25 µg/mL; against Trichophyton benhamiae, more than 100 µg/mL. In addition, the Activity in the assay with Mus musculus [2] was found to be 73 s; in the assay on Mus musculus [3], 75 s. Further, the outcome with Mus musculus [4] was inactive.

`CN1C(=O)CN=C(c2ccccc2)c2cc(Cl)ccc21`: in the assay on Mus musculus [11], the result was Active.

For `Cc1cccc(-c2nn3c(=O)c4c5c(sc4nc3s2)CCCC5)c1`, in the assay on Rattus norvegicus [1], the inhibition in vivo at 50 mg/kg was 51.1%. In addition, the “inhibition zone (IZ)” value in the assay on Escherichia coli stood at 8 mm; in the assay with Pseudomonas aeruginosa it was 20 mm; in the assay with Staphylococcus aureus it was 20 mm; with Klebsiella pneumoniae, 10 mm; in the assay on Talaromyces marneffei it was 18 mm; in the assay with Aspergillus flavus it was 6 mm. Further, the “inhibition zone (IZ)” value is recorded as 18 mm in the assay on Aspergillus fumigatus and 4 mm with Trichophyton benhamiae. Also, the MIC in the assay with Escherichia coli is more than 100 µg/mL; in the assay with Pseudomonas aeruginosa it was 10 µg/mL (≈ 28.3 µM); in the assay on Staphylococcus aureus, 10 µg/mL (≈ 28.3 µM); against Klebsiella pneumoniae it was 80 µg/mL (≈ 226 µM); against Talaromyces marneffei, 12.5 µg/mL (≈ 35.4 µM); in the assay on Aspergillus flavus, more than 100 µg/mL. Besides, the MIC against Aspergillus fumigatus is 12.5 µg/mL (≈ 35.4 µM); against Trichophyton benhamiae, more than 100 µg/mL. For the same compound, the Activity is 51 s in the assay on Mus musculus [2] and 220 s in the assay on Mus musculus [3]. For the same compound, the outcome with Mus musculus [4] was inactive.

As to `COc1ccc2c(c1)c(CC(=O)O)c(C)n2C(=O)c1ccc(Cl)cc1` [INDOMETHACIN], the inhibition in vivo at 1.5 mg/kg in the assay on Rattus norvegicus [12] came to 53.3%.

With `Cc1cc(C)cc(-c2nn3c(=O)c4c5c(sc4nc3s2)CCCC5)c1`, in the assay with Rattus norvegicus [1], the inhibition in vivo at 50 mg/kg is 31.1%. Moreover, the “inhibition zone (IZ)” value in the assay on Escherichia coli is listed as 16 mm; in the assay with Pseudomonas aeruginosa, 18 mm; in the assay on Staphylococcus aureus it was 8 mm; with Klebsiella pneumoniae, 20 mm; in the assay with Talaromyces marneffei, 18 mm; in the assay with Aspergillus flavus, 7 mm. In addition, the “inhibition zone (IZ)” value with Aspergillus fumigatus is 18 mm; with Trichophyton benhamiae, 9 mm. Also, the MIC was 60 µg/mL (≈ 163 µM) against Escherichia coli; 60 µg/mL (≈ 163 µM) against Pseudomonas aeruginosa; more than 100 µg/mL in the assay with Staphylococcus aureus; 10 µg/mL (≈ 27.2 µM) with Klebsiella pneumoniae; 12.5 µg/mL (≈ 34 µM) with Talaromyces marneffei; more than 100 µg/mL against Aspergillus flavus. Besides, the MIC with Aspergillus fumigatus amounted to 12.5 µg/mL (≈ 34 µM); in the assay with Trichophyton benhamiae, 80 µg/mL (≈ 218 µM). Also, the Activity is recorded as 68 s in the assay on Mus musculus [2]; 0 s with Mus musculus [3]; 7.14% in the assay with Mus musculus [5]; 56 s in the assay on Mus musculus [6]; 256 s with Mus musculus [7]; 18 s in the assay filed under Mus musculus [8]. For the same compound, the figures for the Activity in the assay listed under Mus musculus [9] and in the assay on Mus musculus [10] were 34 s and 231 s, respectively. The result in the assay on Mus musculus [4] was Active.

Turning to `Nn1c(SCC(=O)c2cc3ccccc3oc2=O)nc2sc3c(c2c1=O)CCCC3`, the inhibition in vivo at 50 mg/kg with Rattus norvegicus [1] came out at 6.67%. The “inhibition zone (IZ)” value in the assay with Escherichia coli turned out to be 18 mm; in the assay on Pseudomonas aeruginosa it was 8 mm; with Staphylococcus aureus, 22 mm; with Klebsiella pneumoniae, 22 mm; with Talaromyces marneffei, 6 mm; with Aspergillus flavus, 12 mm. Moreover, the “inhibition zone (IZ)” value in the assay with Aspergillus fumigatus and in the assay on Trichophyton benhamiae was 8 mm each time. Also, the MIC is 12.5 µg/mL (≈ 28.4 µM) against Escherichia coli; more than 100 µg/mL against Pseudomonas aeruginosa; 6.25 µg/mL (≈ 14.2 µM) with Staphylococcus aureus; less than 6.25 µg/mL in the assay on Klebsiella pneumoniae; more than 100 µg/mL against Talaromyces marneffei; 80 µg/mL (≈ 182 µM) against Aspergillus flavus. The MIC against Aspergillus fumigatus and in the assay with Trichophyton benhamiae was more than 100 µg/mL each time. Besides, the Activity in the assay with Mus musculus [2] is 56 s; in the assay on Mus musculus [3], 30 s. In addition, in the assay on Mus musculus [4], the outcome was inactive.

For the compound `O=c1c2c3c(sc2nc2sc(-c4ccc([N+](=O)[O-])cc4)nn12)CCCC3`, the inhibition in vivo at 50 mg/kg with Rattus norvegicus [1] was determined as 48.9%. Also, the “inhibition zone (IZ)” value in the assay with Escherichia coli is 8 mm; with Pseudomonas aeruginosa, 9 mm; in the assay on Staphylococcus aureus, 8 mm; in the assay with Klebsiella pneumoniae it was 20 mm; with Talaromyces marneffei, 6 mm; with Aspergillus flavus, 10 mm. Moreover, the “inhibition zone (IZ)” value with Aspergillus fumigatus was found to be 5 mm; with Trichophyton benhamiae, 6 mm. Besides, the MIC against Escherichia coli was more than 100 µg/mL; in the assay on Pseudomonas aeruginosa it was 100 µg/mL (≈ 260 µM); in the assay on Staphylococcus aureus, more than 100 µg/mL; against Klebsiella pneumoniae it was 10 µg/mL (≈ 26 µM); against Talaromyces marneffei, more than 100 µg/mL; in the assay with Aspergillus flavus, 80 µg/mL (≈ 208 µM). Also, the MIC against Aspergillus fumigatus and with Trichophyton benhamiae was more than 100 µg/mL each time. The Activity in the assay on Mus musculus [2] is on record as 56 s; in the assay on Mus musculus [3], 40 s. Also, the outcome in the assay on Mus musculus [4] was inactive.
